This is an account of results in patent US20080279843A1, “Method For Improving Insulin Sensitivity By Administering an Inhibitor of Antitrypsin” (Essential SkinCare, LLC, priority 2003, published 2008).

Series [1] has as its system C57/Black female mice. Kind of series: Glucose tolerance test with insulin and commercial AT (Example 2). The series is classed as in vivo. The settings on record: FIG. 2; fasting (16 h) mice; insulin 0.5 I.U. 15 min before glucose 3 g/kg i.p. On the procedure: C57/Black female mice weighing 22-23 g were fasted for 16 hours. Four animals were used for each of four treatment groups. The first and fourth treatment group received intraperitoneal injections of 1500 μg commercially obtained AT. Exactly 23 hours and 45 minutes after the AT was administered to the first and fourth treatment group, the animals in the first and second treatment group received 0.5 I.U. of insulin. Exactly 15 minutes after the insulin was administered (i.e., 24 hours after the AT was administered to the first treatment group), glucose (3 g/kg) was injected intraperitoneally into the first, second and third treatment groups. Blood samples were taken from the eyes (canthus), and glucose concentrations in whole blood samples were immediately measured with the fast Glucose C test (Wako Chemicals USA Inc., Richmond, Va., USA). The data presented are the mean ±S.D. of four determinations, one with each animal.

The subject of series [2] is differentiated rat L6 muscle cells. Kind of series: Cellular uptake of D-[14C]glucose. In kind it is cell-based. The settings on record: FIG. 3A; 500 nM insulin; incubations for 2-6 hours. The protocol:
(§1) Rat L6 skeletal muscle cells were obtained from the American Type Culture Collection, Rockville, Md. L6 cell monolayers were induced to differentiate in Minimal Essential Medium (MEM) containing 2% (v/v) fetal bovine serum (FBS) and 1% (v/v) antibiotic/antimycotic solution. The cells were fed fresh medium every 48 hours. Myoblast differentiation, which occurred by about the 7-9th day, was monitored by phase contrast microscopy. Differentiated L6 cells are widely used models for studying glucose metabolism in the skeletal muscle. The present study was focused on these cells, because skeletal muscle accounts for about 70-80% of total blood glucose metabolism in the human body.
(§2) To examine cellular glucose uptake and metabolism, differentiated (attached) cells in 12-well plates were incubated at 37° C. in a CO2 incubator (95% air: 5% CO2) with D-[^14C]glucose (1 μCi/mL) in 2% FBS-containing medium containing 5.5 mM unlabeled glucose for 0.5-6 hours as indicated at the corresponding Figures. At the termination of incubation, the medium was removed. An aliquot of the medium was taken to determine the loss of [^14C]glucose from the medium which corresponds to its uptake by cells. Cells were washed twice with 3 ml medium to remove traces of medium containing unincorporated radioactivity. Ice-cold 99.8% methanol/0.2% water (v/v) mixture (1 ml) was then added to the monolayers and cells were extracted for 2 hours at −20° C. […] The methanol phase (1 ml) and a following 1 ml methanol wash were added to 2 ml chloroform followed by the addition of 3 ml water. Of the resulting two phases (separation was facilitated by brief centrifugation), the lower phase contained the total radiolabeled lipids, while the upper phase contained [^14C]glucose.
(§3) Aliquots of the upper and lower phases were taken to scintillation vials to determine the amounts of radiolabeled glucose and total lipids, respectively, by liquid scintillation counting. Precipitated [^14C]glycogen was suspended in 0.75 ml of 1 M NaOH and transferred to scintillation vial. This procedure was repeated with another 0.75 ml aliquot of NaOH. To neutralize the suspension, […] (approximately 150 μL) was then added to the vials, followed by the addition of 8.5 ml Ecolume (scintillation fluid). While the 1 M NaOH suspension contained some particulate material (mostly protein which was not labeled with radiolabeled glucose), no precipitate remained in the suspension after addition of Ecolume. […] No additional radioactivity could be removed from the well by neutralized 30% KOH.
Three groups of differentiated L6 cells, incubated in 12-well plates in 2% FBS-containing medium, were treated as follows. A first control group ([…]) was untreated. A second group (▴) was treated with 500 nM insulin for 30 min. A third group (▪) was treated first with 0.4 mg/ml of AT followed by an addition of 500 nM insulin for 30 min. Following the addition of D-[^14C]glucose, each group was incubated in the continuous presence of insulin and AT, as described above, for 0.5-6 hours.
Four groups of differentiated L6 cells, incubated in 12-well plates in 2% FBS-containing medium, were treated as follows. A first control group was untreated. A second group was treated with 500 nM insulin for 30 min. A third group was treated with 0.05 to 0.4 mg/ml of AT for 10 min. Finally, a fourth group was treated with 0.05 to 0.4 mg/ml of AT for 10 min followed by the addition of 500 nM insulin for 30 min. […]

Series [3] shares this test system. Kind of series: Synthesis of [14C]glycogen from radiolabeled glucose. In kind it is cell-based. The settings on record: 500 nM insulin. On the procedure:
as §1, §2, §3
In some experiments, a published procedure [Huang, D., Cheung, A. T., Parsons, J. T. and Bryer-Ash, M. “Focal adhesion kinase (FAK) regulates insulin-stimulated glycogen synthesis in hepatocytes.” J. Biol. Chem. 277, 18151-18160, (2002)] was used to determine glucose incorporation into glycogen in a method similar to the one described above. After incubations with [^14C] glucose, cells were solubilized with 20% KOH for 2 hours. Lysates were extracted with 8% […], neutralized with 2.0 M HCl, then boiled for 5 min. The total glycogen was precipitated by the addition of 80% ethanol (final concentration) for 2 hours at −20° C. followed by centrifugation at 1100×g for 10 min. This step was repeated.
After the pellets had been re-dissolved in distilled water, the samples were precipitated again using the same method described above, and yielded essentially the same results. In subsequent experiments the initial methanol precipitation method described above was used because it allowed for analysis of cellular glucose, glycogen and lipids from the same sample.
Three groups of differentiated L6 cells, incubated in 12-well plates in 2% FBS-containing medium, were treated as follows. A first control group ([…]) was untreated. A second group (▴) was treated with 500 nM insulin for 30 min. A third group (▪) was treated first with 0.4 mg/ml of AT followed by an addition of 500 nM insulin for 30 min. […]

The test system of series [4] is C57/Black female mice. Kind of series: Glucose tolerance test with insulin and purified AT (Example 3). The settings on record: for Glucose level: mice fasted 16 h, glucose 3 g/kg i.p., insulin 0.5 I.U. 15 min before glucose, purified AT 1200 μg i.p. 24 h before glucose, mean ± S.D., n=5. In kind it is in vivo. The protocol: C57/Black female mice weighing 23-25 g were fasted for 16 hours. Five animals were used for each of the three treatment groups. The first treatment group received intraperitoneal injections of 1200 μg purified AT, i.e. AT purified by the procedure of Example 1. Exactly 23 hours and 45 minutes after the AT was administered to the first treatment group, the animals in the first and second treatment group received 0.5 I.U. of insulin. Exactly 15 minutes after the insulin was administered (i.e., 24 hours after AT was administered to the first treatment group), glucose (3 g/kg) was injected intraperitoneally into the first, second and third treatment group. Blood samples were immediately measured with the fast Glucose C test (Wako Chemicals Inc. Richmond, Va., USA). The data presented are the mean ±S.D. of five determinations, one with each animal.

The next series concerns humans. The settings on record: 600-1200 mg GF once daily, oral, in humans; literature studies; cited from earlier work.
The next series concerns the target AT (Homo sapiens, UniProt P01009). Kind of series: Prevention of the inhibitory effect of AT on insulin-stimulated glycogen synthesis in differentiated L6 cells (Example 7). The series is classed as cell-based. Particulars: FIG. 5. The protocol:
as §1
To examine cellular glucose uptake and metabolism, differentiated (attached) cells in 12-well plates were incubated at 37° C. in a CO2 incubator (95% air: 5% CO2) with D-[^14C]glucose (1 μCi/mL) in 2% FBS-containing medium containing 5.5 mM unlabeled glucose for 0.5-6 hours as indicated at the corresponding Figures. […] Cells were washed twice with 3 ml medium to remove traces of medium containing unincorporated radioactivity. […]
Aliquots of the upper and lower phases were taken to scintillation vials to determine the amounts of radiolabeled glucose and total lipids, respectively, by liquid scintillation counting. […] No additional radioactivity could be removed from the well by neutralized 30% KOH. […]

A further series deals with AT activity (Homo sapiens, UniProt P01009). Particulars: daily oral administration of GF at the 600 mg level; Janciauskiene and Eriksson 1994; cited from earlier work.

Entries after “also recorded” stand apart in the source; their conditions may differ.

Chain of AT (P01009 25-418): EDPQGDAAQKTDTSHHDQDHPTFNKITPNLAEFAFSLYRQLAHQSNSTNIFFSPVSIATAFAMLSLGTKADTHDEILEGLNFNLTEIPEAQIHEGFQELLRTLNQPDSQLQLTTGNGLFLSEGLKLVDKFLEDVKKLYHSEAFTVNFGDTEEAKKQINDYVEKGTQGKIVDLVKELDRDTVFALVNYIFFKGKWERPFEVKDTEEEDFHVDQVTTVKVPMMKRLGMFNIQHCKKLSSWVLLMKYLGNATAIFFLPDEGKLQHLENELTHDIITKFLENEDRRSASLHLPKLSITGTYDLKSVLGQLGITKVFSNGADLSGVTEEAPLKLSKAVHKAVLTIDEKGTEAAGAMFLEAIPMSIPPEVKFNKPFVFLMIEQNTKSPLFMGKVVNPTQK
Chain of AT activity (P01009 25-418): as above

As to insulin [reference compound], the “Effect of insulin on the rise in blood glucose level after glucose” value in the series with C57/Black female mice [1] and with C57/Black female mice [4] (insulin 0.5 I.U. 15 min before glucose 3 g/kg i.p.) was “initially strongly inhibited the rise in blood glucose level” each time. Besides, in series [2], the “Stimulatory effect of insulin on uptake of D-[14C]glucose compared to untreated cells” value is listed as “approximately doubled; also recorded: more than two-fold stimulatory effects”. The “Stimulatory effect of insulin on synthesis of [14C]glycogen compared to untreated cells” value in series [3] (FIG. 3B, incubations for 2-6 hours) is reported as “approximately doubled; also recorded: more than two-fold stimulatory effects”. The “Stimulation of synthesis of [14C]glycogen by insulin” value in series [3] (FIG. 5, 5 hours) is on record as “about two-fold”. Besides, the Glucose level with C57/Black female mice [4] (0 min) is given as 1.7 ± 0.2 mM; in the series with C57/Black female mice [4] (30 min), “N.D.* (N.D means not detectable (below 1 mM))”; in the series on C57/Black female mice [4] (60 min) it was 2.5 ± 0.2 mM; with C57/Black female mice [4] (180 min), 3.0 ± 0.3 mM; in the series on C57/Black female mice [4] (360 min), 3.3 ± 0.3 mM.

For the molecule `Cc1ccc(C)c(OCCCC(C)(C)C(=O)O)c1` [GF, gemfibrozil], the Side effects entry with humans is listed as “In none of these studies did GF exert any significant side effects”. The “Effect of GF or LCA on the inhibitory effect of AT on insulin-stimulated glycogen synthesis” value at AT (25 mM GF or 50 μM LCA added 60 min prior to AT (0.4 mg/ml), 500 nM insulin, 5 hours) is reported as “AT had no such inhibitory effect; also recorded: capable of preventing the strong inhibitory effect of AT”. Moreover, at AT (25 mM GF or 50 μM LCA, without AT), the “Effect of GF or LCA on glycogen synthesis in the absence of AT” value is given as “Neither GF nor LCA had a significant effect”. Further, at AT activity, the “Inhibition of AT activity” value was 30-60%.
